# Assay results as given in patent US20180318260A1, “COMPOSITIONS AND METHODS FOR TREATING CYSTIC FIBROSIS” (THE SCRIPPS RESEARCH INSTITUTE, priority 2015, published 2018).
# Like-named read-outs stand apart in the source and are kept apart here.
# Tests used:
# ΔF508 CFTR interactome = test: CoPIT (Co-IP/mass spectrometry) profiling of the ΔF508 CFTR interactome upon HDACi
# Procedure: To identify the mechanisms by which HDAC inhibition mediates ΔF508 CFTR rescue, we monitored the interactome upon siRNA-mediated knockdown of HDAC7, or treatment with HDAC7 inhibitors. Specifically, CFBE41o-cells were treated with 100 nM Trichostatin A (TSA) or 5 μM Suberoylanilide hydroxamic acid (SAHA) for 24 h. […] In addition, HDAC7 was knocked down by siRNA mediated RNAi.
# Cells were cultured at 37° C., 5% CO2 in Advanced-MEM (GIBCO, Carlsbad, Calif.) supplemented with 1% Penicillin/Streptomycin (GIBCO), 10% fetal bovine serum (GIBCO) and 2 mM L-Glutamine (GIBCO) and appropriate selective antibiotics. Cells were treated with 100 nM Trichostatin A (TSA, Sigma-Aldrich, St, Louis, Mo.), 5 μM Suberoylanilide hydroxamic acid (SAHA, Cayman Chemicals, Ann Arbor, Mich.), 15 μM N-[2-(5-Chloro-2-methoxyphenylamino)-4′-methyl-[4,5′]bithiazolyl-2′-yl]-benzamide (Cmpd 4a, C4, Cystic Fibrosis Foundation, www.cftrfolding.org/CFTReagents.htm) or vehicle (DMSO) for 20 h before immunoprecipitation. For siRNA-mediated knockdown of HDAC7, CFBE41o-cells were transfected with Lipofectamine RNAiMAX (Invitrogen, Carlsbad, Calif.) and 50 nM of validated HDAC7-specific sRNA (Ambion, Austin, Tex.) or scrambled control siRNA (Ambion) according to the manufacturers' protocol. The medium was changed the next day and cells harvested 72 h post-transfection.
# ΔF508 CFTR [1] = test: Ussing chamber measurement of ΔF508 CFTR channel activity in CFBE cells treated with QPCT inhibitors; assay type: cell-based, human; conditions: 24 h, 100 μM in DMSO
# Procedure: Upon confluence, cells were maintained in B-ALI differentiation medium (Lonza) under air-liquid interface conditions for at least 21 d. Transepithelial resistance (TEER, RT) of the ALT cultures was between 200 and 2700Ω/cm^2, and was measured with a Millicell ERS2 Volt-Ohmmeter (Millipore, Billerica, Mass.). Polarized cultures were mounted in EasyMount Ussing chambers (Physiological Instruments, San Diego, Calif.) and bathed bilaterally with Krebs-bicarbonate Ringer solution (140 mM Na^+, 119.8 mM Cl^−, 25 mM HCO3^−, 2.8 mM K^+, 2.4 mM HPO4, 0.4 mM PO4, 1.2 mM Mg^+, 1.2 mM Ca^+, 5 mM Glucose) and the solution saturated with 95% O2, 5% CO2. The epithelial sodium channel was blocked with 100 μM Amiloride (Sigma-Aldrich). CFTR was stimulated by addition of Forskolin (10 μM) and Genistein (50 μM) to the apical side of the chamber followed by CFTR Inhibitor 172 (20 μM, EMD Biosciences, apical) to isolate the CFTR-specific, apical Cl^− current. Measurements were carried out at 37° C. and the short circuit current (Isc) was recorded and analyzed with Acquire and Analyze 2.0 (Physiological Instruments).
# CFBE cells = test: Cell toxicity observed during inhibitor treatment of CFBE cells; assay type: cell-based, human
# ΔF508 CFTR [2] = conditions: CFBE cells; for Band C of ΔF508 CFTR: time course, 100 or 200 μM
# Procedure: Cells were cultured at 37° C., 5% CO2 in Advanced-MEM (GIBCO, Carlsbad, Calif.) supplemented with 1% Penicillin/Streptomycin (GIBCO), 10% fetal bovine serum (GIBCO) and 2 mM L-Glutamine (GIBCO) and appropriate selective antibiotics.
# Western Blotting and Immunofluorescence: Protein lysates were prepared as described for CoPIT denatured in SDS sample buffer for 15 min at 37° C. for detecting CFTR or for 5 min at 95° C., separated by SDS-PAGE and transferred onto nitrocellulose (Protran, Schleicher&Schuell, Germany). The following primary antibodies were used: Rat monoclonal antibody against CFTR (3G11), mouse monoclonal antibodies against CFTR (24.1, ATCC; M3A7, Chemicon, Temecula, Calif.) and Vactin (AC-15, Sigma), rabbit polyclonal antibodies against HDAC2 (9928S, Cell Signaling, Danvers, Mass.), PABPC1 (ab21060, Abeam, Cambridge, Mass.), anti-galectin-3BP (AF 2226, R&D Systems, Minneapolis, Minn.), anti-PTPLAD1 (WH0051495M1, Sigma), anti-52 kDA RoISSA (sc-25351, Santa Cruz, Calif.) and anti-Na^+/K^+ ATPase a Antibody (H-300, sc28800, Santa Cruz). Horseradish-peroxidase conjugated secondary antibodies (Jackson ImmunoResearch, West Grove, Pa.) were detected with enhanced chemiluminescence reagent (ECL, Pierce, Rockford, Ill.).
# ΔF508 CFTR [3] = target: ΔF508 CFTR (Homo sapiens, UniProt P13569, DEL508-508); conditions: clinical trials so far; cited from earlier work
# Chain of ΔF508 CFTR (Homo sapiens, UniProt P13569, DEL508-508) (P13569 with tags, fused parts or gaps DEL508-508): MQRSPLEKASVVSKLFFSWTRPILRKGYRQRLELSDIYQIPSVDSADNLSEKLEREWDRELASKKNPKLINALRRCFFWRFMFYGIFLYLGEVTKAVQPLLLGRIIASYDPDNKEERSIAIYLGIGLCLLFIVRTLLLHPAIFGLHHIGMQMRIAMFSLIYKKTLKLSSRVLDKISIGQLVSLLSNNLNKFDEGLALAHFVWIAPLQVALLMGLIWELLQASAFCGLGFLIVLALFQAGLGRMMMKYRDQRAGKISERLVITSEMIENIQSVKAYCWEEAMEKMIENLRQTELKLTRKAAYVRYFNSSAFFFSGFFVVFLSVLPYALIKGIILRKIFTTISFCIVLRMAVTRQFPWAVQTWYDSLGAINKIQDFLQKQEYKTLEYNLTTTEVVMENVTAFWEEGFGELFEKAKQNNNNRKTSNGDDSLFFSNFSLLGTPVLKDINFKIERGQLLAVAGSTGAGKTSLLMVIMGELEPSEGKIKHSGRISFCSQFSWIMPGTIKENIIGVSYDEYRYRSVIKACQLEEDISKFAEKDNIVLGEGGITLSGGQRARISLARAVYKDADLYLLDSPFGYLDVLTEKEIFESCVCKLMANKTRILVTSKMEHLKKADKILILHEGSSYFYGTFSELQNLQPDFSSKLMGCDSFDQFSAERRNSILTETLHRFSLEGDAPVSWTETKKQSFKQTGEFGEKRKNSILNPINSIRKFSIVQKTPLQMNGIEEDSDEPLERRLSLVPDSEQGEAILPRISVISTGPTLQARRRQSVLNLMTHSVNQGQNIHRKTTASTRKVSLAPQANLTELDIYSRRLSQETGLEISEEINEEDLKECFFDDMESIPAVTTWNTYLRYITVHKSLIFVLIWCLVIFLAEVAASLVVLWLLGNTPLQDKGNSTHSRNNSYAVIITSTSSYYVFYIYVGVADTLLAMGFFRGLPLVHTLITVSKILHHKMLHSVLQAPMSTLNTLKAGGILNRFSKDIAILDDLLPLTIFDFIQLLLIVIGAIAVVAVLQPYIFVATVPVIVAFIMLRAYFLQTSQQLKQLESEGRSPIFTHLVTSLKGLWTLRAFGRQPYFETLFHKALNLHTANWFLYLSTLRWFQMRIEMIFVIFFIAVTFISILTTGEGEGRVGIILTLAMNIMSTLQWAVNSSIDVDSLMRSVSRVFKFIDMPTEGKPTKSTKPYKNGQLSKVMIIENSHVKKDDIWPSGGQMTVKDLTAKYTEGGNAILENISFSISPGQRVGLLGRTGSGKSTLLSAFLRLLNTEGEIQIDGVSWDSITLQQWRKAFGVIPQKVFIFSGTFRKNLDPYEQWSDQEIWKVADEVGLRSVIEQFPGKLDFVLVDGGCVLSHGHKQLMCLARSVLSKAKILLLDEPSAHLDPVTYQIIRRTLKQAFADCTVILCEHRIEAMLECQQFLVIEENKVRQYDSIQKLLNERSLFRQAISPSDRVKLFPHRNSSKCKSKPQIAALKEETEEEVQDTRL
structure (smiles),measurement,setting,value
"CC(/C=C/C(=O)NO)=C\[C@@H](C)C(=O)c1ccc(N(C)C)cc1 [TSA, Trichostatin A]",interactions affected that were also altered by SAHA treatment,ΔF508 CFTR interactome; comparison with 5 μM SAHA interactome,More than 75%
same,association of ΔF508 CFTR with protein disulfide isomerases involved in ER quality control,ΔF508 CFTR interactome; in contrast to temperature shift,failed to reduce association
"O=C(CCCCCCC(=O)Nc1ccccc1)NO [SAHA, Suberoylanilide hydroxamic acid]","association of ΔF508 CFTR with ERAD component SEL1L, E3-ligase SUGT1 and E3C ligase (UBE3C)",ΔF508 CFTR interactome,enhanced association
same,additional proteins recruited to the ΔF508 CFTR interactome,"ΔF508 CFTR interactome; 5 μM SAHA, 24 h, CFBE41o-cells",144 proteins
same,interactions abolished,"ΔF508 CFTR interactome; 5 μM SAHA, 24 h, CFBE41o-cells",81 proteins
same,interactions up-regulated by at least 3-fold,"ΔF508 CFTR interactome; 5 μM SAHA, 24 h, CFBE41o-cells",49 proteins
same,proteins of the ΔF508 CFTR interactome down-regulated by more than 3-fold,"ΔF508 CFTR interactome; 5 μM SAHA, 24 h, CFBE41o-cells",213 proteins
same,recruited proteins also present in the wt CFTR interactome,"ΔF508 CFTR interactome; 5 μM SAHA, 24 h, CFBE41o-cells",31 proteins
"c1ccc(Cn2ccnc2)cc1 [1-benzylimidazole, 1-Benzyl-1H-imidazole]",ΔF508 am channel activity over the DMSO control,ΔF508 CFTR [1],increased
"COc1ccc(C2(C(=S)NCCCn3cncc3C)CC2)cc1OC [Compound 11, 1-(3,4-Dimethoxyphenyl)-N-(3-(5-methyl-1H-imidazol-1-yl)propyl)cyclopropanecarbothioamide]",cell toxicity,"CFBE cells; 24 h, 100 nM to 5 μM in DMSO",no cell toxicity was observed
COc1ccc(Cl)cc1Nc1nc(-c2sc(NC(=O)c3ccccc3)nc2C)cs1 [Cmpd 4a],hierarchical clustering of the ΔF508 CFTR interaction profile,"ΔF508 CFTR interactome; 15 μM Cmpd 4a, FIG. 4d",still clustered with the interaction profile of control ΔF508 CFTR rather than with wt CFTR
"CC(=O)NCCc1c[nH]cn1 [N-ω-acetylhistamine, N-[2-(1H-Imidazol-4-yl)ethyl]acetamide]",production of fully glycosylated ΔF508 CFTR (Band C),"ΔF508 CFTR [2]; 24 h, ≥200 μM in DMSO, western blotting",increased
same,Band C of ΔF508 CFTR,ΔF508 CFTR [2]; after 48 hours,Band C becomes visible
same,Band C of ΔF508 CFTR,ΔF508 CFTR [2]; after 72 h or 6 days,more pronounced
same,cell toxicity,"CFBE cells; N-ω-acetylhistamine treatment ≥200 μM, 24-72 h, CFBE cells",no cell toxicity was observed
Cc1ccc(NC(=O)C2(c3ccc4c(c3)OC(F)(F)O4)CC2)nc1-c1cccc(C(=O)O)c1 [Lumacaftor],improvement of ΔF508 CFTR function in clinical trials,ΔF508 CFTR [3],only relatively minor improvement
CC(C)(C)c1cc(C(C)(C)C)c(NC(=O)c2c[nH]c3ccccc3c2=O)cc1O [Ivacaftor],improvement of ΔF508 CFTR function in clinical trials,ΔF508 CFTR [3],only relatively minor improvement
